From patent publication US20060110481A1, “COMPOSITIONS CONTAINING VITEX AGNUS-CASTUS BERRY OIL FOR COSMECEUTICAL APPLICATIONS AND METHOD OF ISOLATION OF THE ACTIVE COMPONENT” (SAMI LABS LIMITED, priority 2004, published 2006)

What was measured:
Format in all cases: cell-based
[1] = system: Propionibacterium acnes ATCC 11827; test: Direct bioautography on thin layer chromatograms; details: TLC bioautography, P. acnes
Protocol: The antibacterial effects of aqueous, methanolic Vitex agnus castus fruit extract and various extract fractions of different polarities were evaluated by bioautography technique. […] Further fractionation of oil has been done by Silica gel chromatography. Silica gel was been loaded more than half quantity of oil and fraction was collected from mobile phase, hexane, chloroform, 50% chloroform, chloroform, 10% methanol, 50% Methanol and Methanol alone. Active fraction was identified by bioautography technique.
Direct bioautography is the technique used to localize antibacterial activity on a chromatogram. (Lund et al. 1975)
In the present study, the separated fractions of Vitex oil were subjected to Thin Layer Chromatography on silica gel. The solvent system used was hexane: chloroform in 7:3 proportion [FIG. 1]. These chromatograms were dried in the oven at 60° C. for 1 hour to eliminate the traces of solvents. This can be visualized either by spraying the thin layer chromatogram with 5% methanolic sulphuric acid followed by heat drying or under UV light. The plates were taken to the anaerobic chamber where the bioautography experiment was carried out. The medium used was reinforced clostridial agar medium. […]
After incubation, 1-1.2 ml of tetrazolium salt solution [2% concentration] was sprayed as a coloring reagent on the plates. […] The diameter of the zones were measured and expressed in mm.

E. coli = test: Disc diffusion antimicrobial study against E. coli
Protocol: (§1) Procedure: Medium used for this study was reinforced clostridial Agar (RCA). The medium which was prepared and sterilized in 30 ml vials was poured into the plates inside the chamber and allowed to solidity. The culture was inoculated [0.3 ml/plate] into the plates and spread. After 30 minutes, antibacterial sterile discs [6 mm] were dispensed (2/plate), and 2.5, 5.0, 7.5 and 10 μl of the prepared samples and controls were dispensed onto the discs. The plates were incubated inside the anaerobic chamber at 37° C. for 48 hours duration.
(§2) Antimicrobial studies of Vitex oil against general pathogenic aerobic bacteria such as E. coli and S. aureus were also carried out. E. coli was grown in lactose broth and S. aureus in nutrient broth. The method used was the same as it was followed for P. acnes. Clindac A (Clindamycin phosphate gel 1% w/w) was used as positive control. The clearence zone formed around the discs were measured and expressed in mm.

S. aureus = test: Disc diffusion antimicrobial study against S. aureus
Protocol: as §1, §2

COc1ccc(-c2oc3cc(OC)c(OC)c(O)c3c(=O)c2OC)cc1OC [Artemetin]
Antibacterial activity by bioautography (in words) [1]: Clearance zone was exhibited
MIC (E. coli; E. coli): 1.0%
zone of inhibition at 0.5 % strength (E. coli; Escherichia coli, concentration 0.5 % w/v): 0 mm
zone of inhibition at 1 % strength (E. coli; Escherichia coli, concentration 1 % w/v): 9 mm
zone of inhibition at 5 % strength (E. coli; Escherichia coli, concentration 5 % w/v): 12 mm
MIC (S. aureus; S. aureus): 1.0%
zone of inhibition at 0.5 % strength (S. aureus; Staphylococcus aureus, concentration 0.5 % w/v): 0 mm
zone of inhibition at 1 % strength (S. aureus; Staphylococcus aureus, concentration 1 % w/v): 8 mm
zone of inhibition at 5 % strength (S. aureus; Staphylococcus aureus, concentration 5 % w/v): 10 mm
